Test results published in US7498436B2, “Substituted hydroxyethylamines” (Pharmacia & Upjohn Company LLC, priority 2002, dated 2009).

Row | melting point [°C] | SMILES
1 | 205 to 209 | CCCN(CCC)C(=O)c1cc(C(=O)N[C@@H](Cc2ccccc2)[C@H](O)CNCc2cccc(OC)c2)cc(-c2ccc(OC)cc2)c1.Cl
2 | 230 to 233 | CCCN(CCC)C(=O)c1cc(C(=O)N[C@@H](Cc2cc(F)cc(F)c2)[C@H](O)CNCc2cccc(OC)c2)cc(-c2ccccc2)c1.Cl
3 | 214 to 219 | CCCN(CCC)C(=O)c1cc(C(=O)N[C@@H](Cc2ccccc2)[C@H](O)CNCc2cccc(OC)c2)cc(-c2ccccc2)c1.Cl
4 | 199 to 201 | CCCN(CCC)C(=O)c1cc(C(=O)N[C@@H](Cc2ccccc2)[C@H](O)CNCc2cccc(OC)c2)cc(-c2ccsc2)c1.Cl
